The values that follow come from PubChem BioAssay (NCI).

Structures are written as SMILES. Several values for one entry are separate records, joined by “and”; a condition that tells them apart may be missing. Equal entries are not always repeated.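 Method: 48-hour compound exposure of cells in 96-well plates, five concentrations, linear interpolation of endpoints. Abbreviation: GI50, concentration required for 50% inhibition of growth. The concentration for full growth arrest is given as TGI.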

Test systems include HOP-62 NSCLC; HS 578T breast; M14 melanoma; MDA-MB-435; NCI/ADR-RES ovarian; OVCAR-4 ovarian; PC-3 prostate; SR leukemia; TK-10 renal; U251 CNS; UO-31 renal.
Holding throughout (assay): inhibition of tumour cell growth, NCI panel, 48 h

Turning to `O=C(NO)NCCCl`, the TGI with HOP-62 NSCLC, with HS 578T breast, with M14 melanoma, in the assay on MDA-MB-435, with NCI/ADR-RES ovarian and in the assay with OVCAR-4 ovarian was above 100 µM each time. Further, the TGI in the assay on PC-3 prostate, in the assay on SR leukemia, in the assay on TK-10 renal, in the assay on U251 CNS and in the assay on UO-31 renal was above 100 µM throughout.
Take `COc1cc(OC)c2c(c1)OC(c1cccnc1)C(c1ccccc1)C2=O` (centres undefined): the TGI in the assay with HOP-62 NSCLC, in the assay on HS 578T breast, with M14 melanoma, with MDA-MB-435, in the assay on NCI/ADR-RES ovarian and in the assay with OVCAR-4 ovarian was above 100 µM in each case. In addition, the TGI with PC-3 prostate, with SR leukemia, in the assay with TK-10 renal, in the assay with U251 CNS and with UO-31 renal was above 100 µM in each case.
For `COC(=O)C1OC(O[C@H]2CC[C@]3(C)[C@H]4CC=C5[C@@H]6CC(C)(C)CC[C@]6(C(=O)OC6OCC(O)C(O)C6OC6OC(C)C(OC7OCC(O)C(O)C7O)C(OC7OCC(O)(CO)C7O)C6O)[C@H](O)C[C@@]5(C)[C@]4(C)CC[C@H]3C2(C)C)C(O)C(O)C1O` (some centres undefined), the TGI worked out at 10.1 µM with HOP-62 NSCLC; 28.2 µM in the assay with HS 578T breast; 7.41 µM with M14 melanoma; 3.7 µM with MDA-MB-435; 18.2 µM in the assay on NCI/ADR-RES ovarian; 17.4 µM in the assay with OVCAR-4 ovarian. Also, the TGI with PC-3 prostate is 14.5 µM; with SR leukemia, 6.37 µM; with TK-10 renal it was 29.4 µM; in the assay with U251 CNS, 19.3 µM; in the assay on UO-31 renal it was 4.62 µM.
As for `CN(C)c1ccc(/C=C/c2sc3ccccc3[n+]2C)cc1`, the GI50 is 3.7 µM and 8.53 µM with HOP-62 NSCLC; 3.66 µM and 0.427 µM in the assay on M14 melanoma; 2.07 µM and 0.268 µM with SR leukemia; 0.479 µM and 0.121 µM in the assay with U251 CNS; 2.91 µM with UO-31 renal. For the same compound, the TGI in the assay with HOP-62 NSCLC is 14.9 µM and > 100 µM; in the assay with HS 578T breast, 36.8 µM and 46.1 µM; in the assay on M14 melanoma, 16.2 µM and 3.29 µM; with MDA-MB-435, 5.64 µM and 3.94 µM; in the assay with NCI/ADR-RES ovarian it was above 100 µM; in the assay with OVCAR-4 ovarian it was 10.2 µM and 9.3 µM. In addition, the TGI with PC-3 prostate was 10.9 µM and 22.8 µM; in the assay with SR leukemia it was 8.87 µM and 2.6 µM; in the assay on TK-10 renal, 16 µM and 24.9 µM; in the assay with U251 CNS it was 13.8 µM and > 100 µM.
Regarding `Cc1cccc(CC(Cc2ccc(C)cc2C(=O)O)C(=O)O)c1` (centres undefined), the TGI in the assay with HOP-62 NSCLC, with HS 578T breast, with M14 melanoma, in the assay with MDA-MB-435, in the assay on NCI/ADR-RES ovarian and in the assay on OVCAR-4 ovarian was above 100 µM throughout. Also, the TGI with PC-3 prostate, with SR leukemia, with TK-10 renal, in the assay on U251 CNS and in the assay with UO-31 renal was above 100 µM throughout.
